According to article PMC3563422 (Bioorganic & medicinal chemistry, 2012):

How the values were obtained:
Assay type in all cases: biochemical
[1] = target: DENV2 NS2B/NS3pro (Dengue virus type 2, UniProt P14340); test: In vitro DENV2 NS2B/NS3pro protease inhibition assay; conditions: screened at 25 μM
[2] = target: T1, WNV NS2B/NS3pro (West Nile virus, UniProt Q9Q6P4); test: In vitro WNV NS2B/NS3pro protease inhibition assay; conditions: screened at 25 μM
[3] = target: Dengue virus protease (Dengue virus type 2, UniProt P14340); test: Kinetics analysis of DENV NS2B/NS3pro inhibition
Chain of Dengue virus protease (P14340 1476-1653): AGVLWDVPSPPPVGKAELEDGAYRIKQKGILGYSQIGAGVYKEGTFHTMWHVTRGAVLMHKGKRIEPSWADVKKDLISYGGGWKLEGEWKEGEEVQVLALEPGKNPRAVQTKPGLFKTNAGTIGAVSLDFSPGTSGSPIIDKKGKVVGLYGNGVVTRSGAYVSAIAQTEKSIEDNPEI

[4] = target: T1, WNV NS2B/NS3pro; test: Kinetics analysis of WNV NS2B/NS3pro inhibition; conditions: for kcat of tetra-peptide substrate: 37 °C, WNV NS2B/NS3pro 28 nM

T1 sequence (Q9Q6P4 1506-1683): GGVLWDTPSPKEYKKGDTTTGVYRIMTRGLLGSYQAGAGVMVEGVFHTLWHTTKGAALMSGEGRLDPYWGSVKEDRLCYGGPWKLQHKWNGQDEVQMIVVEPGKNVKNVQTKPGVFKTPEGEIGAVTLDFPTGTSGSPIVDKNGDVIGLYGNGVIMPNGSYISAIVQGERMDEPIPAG
Chain of DENV2 NS2B/NS3pro (P14340 1476-1653): as the sequence (P14340 1476-1653) above

O=C(NCc1cn(CSc2ccccc2)nn1)Nc1ccc(C(=O)Nc2ccc(Oc3ccccc3)cc2)cc1 [Compound 7a]
activity against DENV NS2B/NS3pro (screen) [1]: inactive
activity against WNV NS2B/NS3pro (screen) [2]: inactive

O=C(NCc1cn(Cc2ccc(F)cc2)nn1)Nc1ccc(C(=O)Nc2ccc(Oc3ccccc3)cc2)cc1 [Compound 7n]
Ki [3]: 8.77 µM
mode of inhibition of Dengue virus protease ([3]; from kinetics data): competitive
Ki [4]: 5.55 µM
kcat of tetra-peptide substrate ([4]; [7n] = 1 μM): 0.059 ± 0.0014 s⁻¹
kcat of tetra-peptide substrate ([4]; [7n] = 3 μM): 0.062 ± 0.0018 s⁻¹
kcat of tetra-peptide substrate ([4]; [7n] = 5 μM): 0.055 ± 0.0020 s⁻¹
mode of inhibition of West Nile virus protease ([4]; from kinetics data): competitive

O=C(NCc1cn(Cc2ccccc2)nn1)Nc1cccc(C(=O)Nc2cccc(Oc3ccccc3)c2)c1 [Compound 8f]
activity against DENV NS2B/NS3pro (screen) [1]: inactive
activity against WNV NS2B/NS3pro (screen) [2]: inactive
